Values quoted from earlier work, collected in patent US8821924B2, “Rhein or diacerein compositions” (Wockhardt Ltd., priority 2007, dated 2014).

Conditions: water, alcohols, acetone, dichloromethane and chloroform

SMILES: CC(=O)Oc1cccc2c1C(=O)c1c(OC(C)=O)cc(C(=O)O)cc1C2=O [Diacerein, 4,5-bis(acetyloxy)9,10-dihydro-4,5-dihydroxy-9,10-dioxo-2-anthracenecarboxylic acid]
- solubility in solvents: practically insoluble
